According to US7956069B2, “Compounds” (AstraZeneca AB, priority 2006, dated 2011):

What was measured:
Assay type in all cases: cell-based
[1] = molecular target: T1, hM5 (human Muscarinic receptor subtype 5) (Homo sapiens, UniProt P08912); assay: Human M5 calcium mobilization FLIPR assay; settings: CHO cells expressing hM5, Ca2+ release
T1 construct: expressed in transfected cells; host or cells: CHO cells (Chinese hamster ovary cells, ATCC)
T1 sequence (P08912 1-532): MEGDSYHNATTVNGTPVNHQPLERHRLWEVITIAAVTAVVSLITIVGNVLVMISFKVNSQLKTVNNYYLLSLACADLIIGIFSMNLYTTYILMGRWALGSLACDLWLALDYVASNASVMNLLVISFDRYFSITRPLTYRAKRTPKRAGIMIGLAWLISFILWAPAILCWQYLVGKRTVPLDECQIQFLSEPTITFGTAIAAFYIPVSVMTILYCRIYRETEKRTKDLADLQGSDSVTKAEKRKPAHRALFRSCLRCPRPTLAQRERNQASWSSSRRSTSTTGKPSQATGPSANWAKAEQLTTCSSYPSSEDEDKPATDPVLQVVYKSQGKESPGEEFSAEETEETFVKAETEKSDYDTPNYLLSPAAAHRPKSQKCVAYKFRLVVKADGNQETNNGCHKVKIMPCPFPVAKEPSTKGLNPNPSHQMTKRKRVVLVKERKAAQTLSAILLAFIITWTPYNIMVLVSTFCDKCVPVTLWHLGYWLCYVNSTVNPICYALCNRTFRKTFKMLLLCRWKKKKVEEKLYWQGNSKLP
Procedure: (§1) Biological Evaluation Human M1, Rat M1, Human M3 and Human M5 Calcium Mobilization FLIPR™ Assay
(§2) The compound activity in the present invention (EC50 or IC50) was measured using a 384 plate-based imaging assay that monitors drug induced intracellular Ca^2+ release in whole cells. Activation of hM1 (human Muscarinic receptor subtype 1, gene bank access NM_000738), rM1 (rat Muscarinic receptor subtype 1, gene bank access NM_080773), hM3 (human Muscarinic receptor subtype 3, gene bank access NM_000740NM_000740) and hM5 (human Muscarinic receptor subtype 5, gene bank access NM_0121258), receptors expressed in CHO cells (Chinese hamster ovary cells, ATCC) was quantified in a Molecular Devices FLIPR II™ instrument as an increase in fluorescent signal. Inhibition of hM3 and hM5 by compounds was determined by the decrease in fluorescent signal in response to 20 nM carbachol activation.
(§3) CHO cells were plated in 384-black polylysine coated plate (Costar) at 8000 cells/well/50 μl for 24 hours or 4000 cells/well for 48 hours in a humidified incubator (5% CO2 and 37° C.) in DMEM/F12 medium without selection agent. Prior to the experiment the cell culture medium was removed from the plates by inversion. A loading solution of 30 μl of Hank's balanced salt solution, 10 mM Hepes and 2.5 mM Probenicid at Ph 7.4 (Cat no. 311-520-VL, Wisent) with 2 μM calcium indicator dye (FLUO-3AM, Molecular Probes F14202) was added to each well. Plates were incubated at 37° C. for 60 minutes prior to start the experiment. The incubation was terminated by washing the cells four times in assay buffer, leaving a residual 25 μl buffer per well. Cell plates were then transferred to the FLIPR, ready for compound additions.
(§4) The day of experiment, carbachol and compounds were diluted in three-fold concentration range (10 points serial dilution) for addition by FLIPR instrument. For all calcium assays, a baseline reading was taken for 30 seconds followed by the addition of 12.5 μl (25 μl for hM1 and rM1) of compounds, resulting in a total well volume of 37.5 μl (50 μl for hM1 and rM1). Data were collected every 1.6 seconds for 300 seconds. For hM3 and hM5 an additional 12.5 μl of carbachol (20 nM final) was added at 300 seconds. After this addition of carbachol (producing a final volume of 50 μl), the FLIPR continued to collect data every 2 seconds for 240 seconds. The fluorescence emission was read using filter 1 (emission 520-545 nm) by the FLIPR on board CCD camera.
(§5) Calcium mobilization output data were calculated as the maximal relative fluorescence unit (RFU) minus the minal value for both compound and agonist reading frame (except for hM1 and rM1 using only the maximal RFU). Data were analyzed using sigmoidal fits of a non-linear curve-fitting program (XLfit version 5.0.6 from ID Business Solutions Limited, Guildford, UK). All EC50 and IC50 values are reported as arithmetic means±standard error of mean of ‘n’ independent experiments.

[2] = molecular target: T2, hM1 (human Muscarinic receptor subtype 1) (Homo sapiens, UniProt P11229); assay: Human M1 calcium mobilization FLIPR assay; settings: CHO cells expressing hM1, Ca2+ release
T2 construct: expressed in transfected cells; host or cells: CHO cells (Chinese hamster ovary cells, ATCC)
T2 sequence (P11229 1-460): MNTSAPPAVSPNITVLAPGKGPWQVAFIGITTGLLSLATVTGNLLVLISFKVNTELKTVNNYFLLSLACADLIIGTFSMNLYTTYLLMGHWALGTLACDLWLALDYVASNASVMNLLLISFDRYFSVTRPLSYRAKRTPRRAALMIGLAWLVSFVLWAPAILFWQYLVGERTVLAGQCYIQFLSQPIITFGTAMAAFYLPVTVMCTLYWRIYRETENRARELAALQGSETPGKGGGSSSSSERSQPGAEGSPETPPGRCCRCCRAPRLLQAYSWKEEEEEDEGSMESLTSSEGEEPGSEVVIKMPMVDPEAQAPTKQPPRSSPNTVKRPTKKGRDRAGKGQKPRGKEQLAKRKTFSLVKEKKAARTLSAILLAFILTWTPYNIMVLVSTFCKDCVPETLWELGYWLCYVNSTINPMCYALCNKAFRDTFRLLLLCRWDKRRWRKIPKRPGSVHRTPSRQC
Procedure: as §1, §2, §3, §4, §5

[3] = molecular target: T3, hM3 (human Muscarinic receptor subtype 3) (Homo sapiens, UniProt P20309); assay: Human M3 calcium mobilization FLIPR assay; settings: CHO cells expressing hM3, Ca2+ release
T3 construct: expressed in transfected cells; host or cells: CHO cells (Chinese hamster ovary cells, ATCC)
T3 sequence (P20309 whole entry): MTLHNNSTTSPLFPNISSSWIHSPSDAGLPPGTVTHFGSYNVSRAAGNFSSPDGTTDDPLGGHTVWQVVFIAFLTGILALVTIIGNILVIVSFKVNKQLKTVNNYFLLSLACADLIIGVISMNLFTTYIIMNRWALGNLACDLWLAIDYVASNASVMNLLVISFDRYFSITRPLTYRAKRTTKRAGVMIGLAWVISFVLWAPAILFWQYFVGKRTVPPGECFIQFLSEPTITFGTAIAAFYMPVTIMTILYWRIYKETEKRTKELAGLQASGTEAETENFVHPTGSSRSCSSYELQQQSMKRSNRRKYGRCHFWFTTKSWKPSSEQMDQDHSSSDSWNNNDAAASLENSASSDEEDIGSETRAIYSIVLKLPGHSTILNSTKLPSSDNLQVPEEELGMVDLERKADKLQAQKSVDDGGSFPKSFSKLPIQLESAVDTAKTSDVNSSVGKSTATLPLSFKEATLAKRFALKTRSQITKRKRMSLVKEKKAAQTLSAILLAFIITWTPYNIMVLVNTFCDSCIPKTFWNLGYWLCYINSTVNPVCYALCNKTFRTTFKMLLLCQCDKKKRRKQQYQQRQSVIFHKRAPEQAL
Procedure: as §1, §2, §3, §4, §5

Row | Compound | EC50 [1] | EC50 [2] | EC50 [3]
1 | O=C(C1CCCC1)N1CCC(N2CCC(N3C(=O)N[C@H]4CCCC[C@@H]43)CC2)CC1 | > 40000 nM | 95 nM | > 40000 nM
2 | O=C1CCCN1CCC(=O)N1CCC(N2CCC(N3C(=O)N[C@@H]4CCCC[C@H]43)CC2)CC1 | 2400 nM | 9.2 nM | 5400 nM
3 | O=C(OCCF)N1CCC(N2CCC(N3C(=O)N[C@H]4CCCC[C@@H]43)CC2)CC1 |  | 2.5 nM | 
4 | O=C1CCCN1CCC(=O)N1CCC(N2CCC(N3C(=O)N[C@H]4CCCC[C@@H]43)CC2)CC1 | 1600 nM | 6.8 nM | > 40000 nM
5 | CCOC(=O)N1CCC(N2CCC(N3C(=O)N[C@H]4CCCC[C@@H]43)CC2)CC1 | 220 nM | 1.1 nM | 2500 nM
6 | O=C(C1CC1)N1CCC(N2CCC(N3C(=O)N[C@@H]4CCCC[C@H]43)CC2)CC1 | > 40000 nM | 46 nM | > 40000 nM
7 | CC(C)OC(=O)N1CCC(N2CCC(N3C(=O)N[C@H]4CCCC[C@@H]43)CC2)CC1 | 36 nM | 4.6 nM | > 40000 nM
8 | COc1ccccc1C(=O)N1CCC(N2CCC(N3C(=O)N[C@@H]4CCCC[C@H]43)CC2)CC1 | > 40000 nM | 200 nM | > 40000 nM
9 | CCOC(=O)N1CC[C@H](N2CCC(N3C(=O)N[C@H]4CCCC[C@@H]43)CC2)C1 | 3900 nM | 5 nM | > 40000 nM
10 | CN1C(=O)N(C2CCN(C3CCN(C(=O)C4CC4)CC3)CC2)[C@H]2CCCC[C@@H]21 | > 40000 nM | 94 nM | > 40000 nM
11 | CC(C)OC(=O)N1CCC(N2CCC(N3C(=O)N[C@@H]4CCCC[C@@H]43)CC2)CC1 | 72 nM | 15 nM | > 40000 nM
12 | CC(C)OC(=O)N1CCC(N2CCC(N3C(=O)C[C@H]4CCCC[C@@H]43)CC2)CC1 | > 40000 nM | 14 nM | > 40000 nM
